Structures can show the parent of a compound that is named as a salt.
Target: T1, human FXR (Homo sapiens, UniProt Q96RI1)
T1 construct: expressed in transfected cells
T1 sequence (Q96RI1 1-486): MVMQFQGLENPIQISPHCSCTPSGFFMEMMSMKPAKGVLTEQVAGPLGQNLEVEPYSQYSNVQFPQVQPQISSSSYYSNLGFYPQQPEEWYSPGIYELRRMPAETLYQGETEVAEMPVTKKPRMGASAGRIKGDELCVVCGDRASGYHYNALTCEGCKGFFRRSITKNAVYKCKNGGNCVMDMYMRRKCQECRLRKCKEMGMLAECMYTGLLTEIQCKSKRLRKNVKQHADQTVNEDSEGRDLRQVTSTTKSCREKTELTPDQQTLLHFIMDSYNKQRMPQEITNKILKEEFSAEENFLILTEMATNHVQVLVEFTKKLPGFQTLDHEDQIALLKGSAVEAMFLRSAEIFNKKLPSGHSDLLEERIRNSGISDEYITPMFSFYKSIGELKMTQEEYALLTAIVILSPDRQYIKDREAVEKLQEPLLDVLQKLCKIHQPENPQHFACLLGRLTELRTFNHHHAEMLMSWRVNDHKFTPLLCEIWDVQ
Experiment: FXR reporter assay (cellular FXR activities)
Assay type: cell-based
Conditions: for EC50: FXR reporter cells, 24 hours incubation, luciferase, read-out: Reporter Cell EC50; for Emax: read-out: Emax (%) (GW4064 Emax = 100%)
Method: FXR reporter assay was performed to measure cellular FXR activities of the compounds in the present invention. FXR reporter cells with high expression level of human FXR were seeded into 96-well cell culture plates, and incubated for 1-2 hours at 37° C. under 5% CO2 atmosphere. The invented compounds diluted in DMSO with various concentrations were added to the 96-well cell culture plates, and they were incubated for 24 hours at 37° C. under 5% CO2 atmosphere. After incubation, we calculate EC50 by using luciferase substrate.

SMILES	EC50 [nM]	Emax [%]
CNCc1cc(C#Cc2ccc(OCc3c(-c4c(Cl)cccc4Cl)noc3C3CC3)cc2Cl)cc(C(=O)O)c1 [Compound I-44, 3-((2-chloro-4-((5-cyclopropyl-3-(2,6-dichlorophenyl)isoxazol-4-yl)methoxy)phenyl)ethynyl)-5-((methylamino)methyl)benzoic acid]	200 to 1000	> 100
CCNCc1cc(C#Cc2ccc(OCc3c(-c4c(Cl)cccc4Cl)noc3C3CC3)cc2Cl)cc(C(=O)O)c1 [Compound I-45, 3-((2-chloro-4-((5-cyclopropyl-3-(2,6-dichlorophenyl)isoxazol-4-yl)methoxy)phenyl)ethynyl)-5-((ethylamino)methyl)benzoic acid]	200 to 1000	88
CC(C)(C)NCc1cc(C#Cc2ccc(OCc3c(-c4c(Cl)cccc4Cl)noc3C3CC3)cc2Cl)cc(C(=O)O)c1 [Compound I-48, 3-((tert-butylamino)methyl)-5-((2-chloro-4-((5-cyclopropyl-3-(2,6-dichlorophenyl)isoxazol-4-yl)methoxy)phenyl)ethynyl)benzoic acid]	200 to 1000	81
O=C(O)c1cc(C#Cc2ccc(OCc3c(-c4c(Cl)cccc4Cl)noc3C3CC3)cc2Cl)cc(CNC2COC2)c1 [Compound I-51, 3-((2-chloro-4-((5-cyclopropyl-3-(2,6-dichlorophenyl)isoxazol-4-yl)methoxy)phenyl)ethynyl)-5-((oxetan-3-ylamino)methyl)benzoic acid]	200 to 1000	75
O=C(O)c1cc(C#Cc2ccc(OCc3c(-c4c(Cl)cccc4Cl)noc3C3CC3)cc2Cl)cc(NC2CCNCC2)c1 [Compound I-58, 3-((2-chloro-4-((5-cyclopropyl-3-(2,6-dichlorophenyl)isoxazol-4-yl)methoxy)phenyl)ethynyl)-5-(piperidin-4-ylamino)benzoic acid hydrochloride]	> 1000	75
O=C(O)c1cc(C#Cc2ccc(OCc3c(-c4c(Cl)cccc4Cl)noc3C3CC3)cc2Cl)cc(N2CCNCC2)c1 [Compound I-59, 3-((2-chloro-4-((5-cyclopropyl-3-(2,6-dichlorophenyl)isoxazol-4-yl)methoxy)phenyl)ethynyl)-5-(piperazin-1-yl)benzoic acid hydrochloride]	200 to 1000	90
CCc1cc(C#Cc2ccc(OCc3c(-c4c(Cl)cccc4Cl)noc3C3CC3)cc2Cl)cc(C(=O)O)c1 [Compound I-65, 3-((2-chloro-4-((5-cyclopropyl-3-(2,6-dichlorophenyl)isoxazol-4-yl)methoxy)phenyl)ethynyl)-5-ethylbenzoic acid]	60 to 200	92
CC(C)c1cc(C#Cc2ccc(OCc3c(-c4c(Cl)cccc4Cl)noc3C3CC3)cc2Cl)cc(C(=O)O)c1 [Compound I-66, 3-((2-chloro-4-((5-cyclopropyl-3-(2,6-dichlorophenyl)isoxazol-4-yl)methoxy)phenyl)ethynyl)-5-isopropylbenzoic acid]	60 to 200	92
O=C(O)c1cccc(C#Cc2cc(Cl)c(OCc3c(-c4c(Cl)cccc4Cl)noc3C3CC3)cc2Cl)c1 [Compound I-68, 3-((2,5-dichloro-4-((5-cyclopropyl-3-(2,6-dichlorophenyl)isoxazol-4-yl)methoxy)phenyl)ethynyl)benzoic acid]	> 1000	96
O=C(O)c1cccc(C#Cc2ccc(OCc3c(-c4c(Cl)cccc4Cl)noc3C3CC3)c(Cl)c2Cl)c1 [Compound I-69, 3-((2,3-dichloro-4-((5-cyclopropyl-3-(2,6-dichlorophenyl)isoxazol-4-yl)methoxy)phenyl)ethynyl)benzoic acid]	200 to 1000	> 100

Other lines, results leading:

EC50 [nM]	Emax [%]	SMILES
20 to 60	83	COc1cc(C#Cc2ccc(OCc3c(-c4c(Cl)cccc4Cl)noc3C3CC3)cc2Cl)cc(C(=O)O)c1 [Compound I-40, 3-((2-chloro-4-((5-cyclopropyl-3-(2,6-dichlorophenyl)isoxazol-4-yl)methoxy)phenyl)ethynyl)-5-methoxybenzoic acid]
20 to 60	> 100	O=Cc1cc(C#Cc2ccc(OCc3c(-c4c(Cl)cccc4Cl)noc3C3CC3)cc2Cl)cc(C(=O)O)c1 [Compound I-41, 3-((2-chloro-4-((5-cyclopropyl-3-(2,6-dichlorophenyl)isoxazol-4-yl)methoxy)phenyl)ethynyl)-5-formylbenzoic acid]
20 to 60	> 100	O=C(O)c1cc(C#Cc2ccc(OCc3c(-c4c(Cl)cccc4Cl)noc3C3CC3)cc2Cl)cc(CNC2CC2)c1 [Compound I-42, 3-((2-chloro-4-((5-cyclopropyl-3-(2,6-dichlorophenyl)isoxazol-4-yl)methoxy)phenyl)ethynyl)-5-((cyclopropylamino)methyl)benzoic acid]
60 to 200	> 100	O=C(O)c1cc(C#Cc2ccc(OCc3c(-c4c(Cl)cccc4Cl)noc3C3CC3)cc2Cl)cc(CN2CCC2)c1 [Compound I-43, 3-(azetidin-1-ylmethyl)-5-((2-chloro-4-((5-cyclopropyl-3-(2,6-dichlorophenyl)isoxazol-4-yl)methoxy)phenyl)ethynyl)benzoic acid]
60 to 200	99	O=C(O)c1cc(C#Cc2ccc(OCc3c(-c4c(Cl)cccc4Cl)noc3C3CC3)cc2Cl)cc(CNCC(F)(F)F)c1 [Compound I-46, 3-((2-chloro-4-((5-cyclopropyl-3-(2,6-dichlorophenyl)isoxazol-4-yl)methoxy)phenyl)ethynyl)-5-(((2,2,2-trifluoroethyl)amino)methyl)benzoic acid]
20 to 60	> 100	CN(C)Cc1cc(C#Cc2ccc(OCc3c(-c4c(Cl)cccc4Cl)noc3C3CC3)cc2Cl)cc(C(=O)O)c1 [Compound I-49, 3-((2-chloro-4-((5-cyclopropyl-3-(2,6-dichlorophenyl)isoxazol-4-yl)methoxy)phenyl)ethynyl)-5-((dimethylamino)methyl)benzoic acid]
20 to 60	> 100	O=C(O)c1cc(C#Cc2ccc(OCc3c(-c4c(Cl)cccc4Cl)noc3C3CC3)cc2Cl)cc(CN2CCOCC2)c1 [Compound I-50, 3-((2-chloro-4-((5-cyclopropyl-3-(2,6-dichlorophenyl)isoxazol-4-yl)methoxy)phenyl)ethynyl)-5-(morpholinomethyl)benzoic acid]
≤ 20	93	CCNc1cc(C#Cc2ccc(OCc3c(-c4c(Cl)cccc4Cl)noc3C3CC3)cc2Cl)cc(C(=O)O)c1 [Compound I-53, 3-((2-chloro-4-((5-cyclopropyl-3-(2,6-dichlorophenyl)isoxazol-4-yl)methoxy)phenyl)ethynyl)-5-(ethylamino)benzoic acid]
20 to 60	> 100	O=C(O)c1cc(C#Cc2ccc(OCc3c(-c4c(Cl)cccc4Cl)noc3C3CC3)cc2Cl)cc(N2CCC2)c1 [Compound I-55, 3-(azetidin-1-yl)-5-((2-chloro-4-((5-cyclopropyl-3-(2,6-dichlorophenyl)isoxazol-4-yl)methoxy)phenyl)ethynyl)benzoic acid]
≤ 20	96	O=C(O)c1cc(C#Cc2ccc(OCc3c(-c4c(Cl)cccc4Cl)noc3C3CC3)cc2Cl)cc(N2CCCC2)c1 [Compound I-56, 3-((2-chloro-4-((5-cyclopropyl-3-(2,6-dichlorophenyl)isoxazol-4-yl)methoxy)phenyl)ethynyl)-5-(pyrrolidin-1-yl)benzoic acid]
20 to 60	98	Cc1c(N)cc(C(=O)O)cc1C#Cc1ccc(OCc2c(-c3c(Cl)cccc3Cl)noc2C2CC2)cc1Cl [Compound I-60, 3-amino-5-((2-chloro-4-((5-cyclopropyl-3-(2,6-dichlorophenyl)isoxazol-4-yl)methoxy)phenyl)ethynyl)-4-methylbenzoic acid]
60 to 200	95	COc1c(N)cc(C(=O)O)cc1C#Cc1ccc(OCc2c(-c3c(Cl)cccc3Cl)noc2C2CC2)cc1Cl [Compound I-61, 3-amino-5-((2-chloro-4-((5-cyclopropyl-3-(2,6-dichlorophenyl)isoxazol-4-yl)methoxy)phenyl)ethynyl)-4-methoxybenzoic acid]
60 to 200	> 100	COc1c(N)cc(C#Cc2ccc(OCc3c(-c4c(Cl)cccc4Cl)noc3C3CC3)cc2Cl)cc1C(=O)O [Compound I-62, 3-amino-5-((2-chloro-4-((5-cyclopropyl-3-(2,6-dichlorophenyl)isoxazol-4-yl)methoxy)phenyl)ethynyl)-2-methoxybenzoic acid]
20 to 60	> 100	O=C(O)c1cc(C#Cc2ccc(OCc3c(-c4c(Cl)cccc4Cl)noc3C3CC3)cc2Cl)cc(C2CC2)c1 [Compound I-64, 3-((2-chloro-4-((5-cyclopropyl-3-(2,6-dichlorophenyl)isoxazol-4-yl)methoxy)phenyl)ethynyl)-5-cyclopropylbenzoic acid]
20 to 60	> 100	O=C(O)c1cc(I)cc(C#Cc2ccc(OCc3c(-c4c(Cl)cccc4Cl)noc3C3CC3)cc2Cl)c1 [Compound I-67, 3-((2-chloro-4-((5-cyclopropyl-3-(2,6-dichlorophenyl)isoxazol-4-yl)methoxy)phenyl)ethynyl)-5-iodobenzoic acid]
